From US20210163489A1, “PYRAZOLOPYRIMIDINE DERIVATIVES AND THE COMPOSITIONS AND METHODS OF TREATMENT REGARDING THE SAME” (NysnoBio Ireland DAC, priority 2016, published 2021)

Target: T1, Parkin (Homo sapiens, UniProt O60260)
T1 construct: Enzyme 3: Parkin-His tagged 203 μM (10.5 mg/ml)
Assay: Parkin pUB auto-ubiquitinylation assay (TR-FRET)
Type: biochemical
Conditions: not given
Excerpt: A Parkin pUB Auto-ubiquitinylation Assay is used to evaluate a compound's potency to activate Parkin's ability to Auto-ubiquitinylate itself.
The principle of this assay is that the E3 Ligase Parkin catalyzes the transfer of Ubiquitin to target proteins, but also has the ability to auto-ubiquitinylate itself. The phospho-Ubiquition (pUb) added to the assay alters the Parkin to a state where small molecule activators can enable the Parkin to auto-ubiquitinylate though the E1-E2 cascade reaction. The use of a Eu cryptate Ubiquition and anti 6His-d2 that binds to the His tagged Parkin will give a signal when the Eu cryptate Ubiquition is auto-ubiquitinylate onto the Parkin which can be monitored by TR-FRET.
Similar to the Activity-based probe assay in Example 2, screening for activating compounds can be distinguished from the controls as follows:
100% activation signal=pUb activated Parkin+40 nM control activator in DMSO. 0% activation signal=pUb activated Parkin+DMSO only. Parkin activators can be identified by an increase of the 0% activation signal TR-FRET signal.
• Assay Plate: White 384 well plate (Corning 3572) • Enzyme 1: E1 (Ubiquitin-activating enzyme/UBE1 Boston Biochem E-305) • Enzyme 2: E2 (UBcH7/Ube2L3 Boston Biochem E2-640) • Enzyme 3: Parkin-His tagged 203 μM (10.5 mg/ml) • pUb: Phospho-Ubiquitin (S65) (Boston Biochem U-102) • Eu Cryptate Reagent: Ubiquitin Eu (CisBio 61UBIKLA) • DMSO: DMSO (Sigma-34869-2.5L) • Reaction Buffer: 50 mM HEPES, 50 mM NaCl, 1 mM MgCl2, 0.005% Tween 20, 0.1% • PF-127 (Fisher Scientific 50-310-494), pH 8.5 • Detection Buffer: 50 mM HEPES, 50 mM NaCl, 800 mM KF, 5 mM EDTA, 0.005% • Tween 20, 0.1% PF-127, pH 8.5 • Detection Reagent Z: 13.4 nM Anti-6His-d2 in detection buffer • d2 Reagent: Anti-6His-d2 (CisBio 61HISDLA)
Enzyme Reaction (15 min Pre-Incubation with Parkin, pUb and Activator Only) • Parkin: 196 nM • pUb: 196 nM • DMSO: 1% DMSO • E1: 5 nM • E2: 50 nM • Ubiquitin Eu: 8.8 nM • Reaction time: 120 minutes • Temperature: 22° C. • Total volume: 10 μl reaction
Take 10 μl of Enzyme Reaction above and add 10 μl detection Reagent Z under the following conditions:
Reaction time: 60 minutes
1) Load assay plate wells with 4.9 μl 400.0 nM Parkin, 400 nM pUb in reaction buffer by use of Eppendorf 12-channel pipette. 2) Deliver 0.1 μl 100× activator candidates in DMSO by use of Echo 555 compound dispenser. Highest 100× concentration=100 μm and then twofold dilutions. Add each compound and control in duplicate wells. 3) Spin 1000 rpm, 2 minutes, at room temp. 4) Incubate plate for 15 minutes at room temp. 5) Add 5 μl 10 nM E1, 100 nM E2, 17.6 nM Ubiquitin Eu and 2 mM ATP in Reaction Buffer by use of Eppendorf 12-channel pipette. 6) Spin 1000 rpm, 2 minutes, at room temp. 7) Incubate plate for 120 minutes at room temp. 8) Add 10 μl 13.4 nM anti his d2 in detection buffer by use of Eppendorf 12-channel pipette. 9) Spin 1000 rpm, 2 minutes, at room temp. 10) Incubate plate for 120 minutes at room temp. 11) Read plates on Perkin Elmer Envision instrument with the following parameters:
LANCE dual laser protocol loaded into the Envision® software
Top Mirror: LANCE/DELFIA Duel/Bias (Bar code 446) Emission Filter: APC 665 EM (Bar code 205) 2nd Emission Filter: Europium 615 EM (Bar code 203) Read […] (channel 1) and 615 nm (channel 2) wavelengths on Envision®
Data Analysis: The Data can be read in CSV files. There are two tables in those CSV files, which are the values of 655 nm (channel 1) and 615 nm (channel 2) wavelengths respectively. The data is converted to an HTRF Ratio=(Channel 1/Channel 2)*10,000
The average of all the 0 uM controls (DMSO only)=BKGD (Background—0% activation). Subtract BKGD from each HTRF Ratio value=HTRF-BKGD. The average of all the 100 uM control activator in DMSO controls=Max (100% activation). The following equation is then used to calculate % Activation for each well/candidate as follows: % Activation=(HTRF−BKGD/Max)*100.
XLFIT5 model 205 was applied for the data analysis. […]

T1 sequence (O60260 whole entry, other chains not shown): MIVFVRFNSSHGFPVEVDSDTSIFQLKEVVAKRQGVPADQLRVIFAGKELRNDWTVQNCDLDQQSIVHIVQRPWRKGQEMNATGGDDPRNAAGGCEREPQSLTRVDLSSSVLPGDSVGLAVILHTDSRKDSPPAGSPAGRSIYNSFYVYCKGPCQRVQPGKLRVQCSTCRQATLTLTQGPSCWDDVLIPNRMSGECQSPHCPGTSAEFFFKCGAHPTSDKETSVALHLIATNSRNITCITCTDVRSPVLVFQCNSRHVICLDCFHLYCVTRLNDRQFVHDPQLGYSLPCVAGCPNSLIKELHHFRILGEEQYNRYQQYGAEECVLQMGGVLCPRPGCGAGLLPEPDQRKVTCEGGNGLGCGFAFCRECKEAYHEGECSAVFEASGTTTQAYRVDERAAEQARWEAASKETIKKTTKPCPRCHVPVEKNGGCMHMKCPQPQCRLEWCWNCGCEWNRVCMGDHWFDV

| Parkin activity in an auto-ubiquitination assay | SMILES |
| --- | --- |
| increases | Cc1cc(S)n2ncc(-c3ccc(F)cc3)c2n1 [Compound L, 3-(4-fluorophenyl)-5-methylpyrazolo[1,5-a]pyrimidine-7-thiol] |
| increases | Cc1nc2c(-c3ccccc3)c(C)nn2c(S)c1Cc1ccccc1 [Compound A, 6-benzyl-2,5-dimethyl-3-phenylpyrazolo[1,5-a]pyrimidine-7-thiol] |

Same assay, conditions: activation of pUb activated Parkin; read-out: Auto-ubiq EC50 (μM) [Example 3]

| EC50 | SMILES |
| --- | --- |
| > 40 µM | Cc1ccc(-c2cnn3c(O)cc(C)nc23)cc1 [Compound H3] |
| > 40 µM | COc1ccc(Cn2ccc(-c3cnn4c(S)cc(C)nc34)cc2=O)cc1 [Compound B3] |
| > 40 µM | Cc1nc2c(-c3cccnc3)c(C)nn2c(O)c1Cc1ccccc1 [Compound L3] |
| > 40 µM | Cc1nc2c(C3CCN(C)CC3)c(C)nn2c(S)c1Cc1ccccc1 [Compound N3] |
| 32 µM | Cc1cc(S)c2ncc(-c3ccc(F)cc3)n2n1 [Compound F3] |
| > 40 µM | Cc1nc2c(C3CCN(C)CC3)c(C)nn2c(O)c1Cc1ccccc1 [Compound O3] |
| > 40 µM | Cc1nn2c(O)c3c(nc2c1-c1ccccc1)CCN(C)C3 [Compound K3] |
| > 40 µM | Cc1ccc(-c2cnn3c(S)c4c(nc23)CN(C)CC4)cc1 [Compound S3] |
| > 40 µM | Cc1cc(S)n2ncc(-c3cc[nH]c(=O)c3)c2n1 [Compound A3] |
| > 40 µM | Cc1ccc(-c2cnn3c(O)c4c(nc23)CN(C)CC4)cc1 [Compound P3] |
| > 40 µM | COc1ccc(-c2cnn3c(O)cc(C)nc23)cc1 [Compound J3] |
| 21 µM | Cc1nc2c(-c3cccnc3)c(C)nn2c(S)c1Cc1ccccc1 [Compound D3] |
| > 40 µM | Cc1nn2c(S)c3c(nc2c1-c1ccccc1)CN(C)CC3 [Compound C3] |
| 29 µM | Cc1nn2c(S)c(CCc3ccccc3)cnc2c1-c1ccccc1 [Compound E3] |
| > 40 µM | Cc1nn2c(O)c(CC(C)C)cnc2c1-c1ccccc1 [Compound I3] |

The remaining lines, values behind:

| SMILES | EC50 |
| --- | --- |
| Cc1cc(C)c2c(n1)nn1c(O)c(Cc3ccccc3)c(C)nc21 [NN] | > 40 µM |
| Cc1cc2nc(C)c(Cc3ccc(Cl)cc3)c(S)n2n1 [Compound R, 6-[(4-chlorophenyl)methyl]-2,5-dimethyl-pyrazolo[1,5-a]pyrimidine-7-thiol] | > 40 µM |
| Cc1nc2c(-c3ccccc3)c(C)nn2cc1Cc1ccccc1 [QQ] | > 40 µM |
| Cc1nc2c(C#N)c(C)nn2c(S)c1Cc1ccccc1 [OO] | > 40 µM |
| CNc1c2c(nc3c(-c4ccccc4)c(C)nn13)CCN(C)C2 [YY] | > 40 µM |
| Cc1nn2c(S)c(Cc3ccccc3)cnc2c1-c1ccccc1 [Compound DD, 6-benzyl-2-methyl-3-phenyl-pyrazolo[1,5-a]pyrimidin-7-thiol] | > 40 µM |
| Cc1nc2c(C#N)c(C)nn2c(O)c1Cc1ccccc1 [Compound GG, 6-benzyl-7-hydroxy-2,5-dimethyl-pyrazolo-[1,5-a]pyrimidine-3-carbonitrile] | > 40 µM |
| Cc1cc(S)n2nc(C)c(-c3ccc(Cl)cc3)c2n1 [N] | > 40 µM |
| Cc1ccc(-c2cnn3c(S)cc(C)nc23)cc1 [TT] | > 40 µM |
| Cc1nc2c(C(=O)N(C)C)c(C)nn2c(O)c1Cc1ccccc1 [EE] | > 40 µM |
| Cc1nc2c(-c3ccccc3)c(C)nn2c(O)c1Cc1ccccc1 [T] | > 40 µM |
| Cc1nn2c(S)c3c(nc2c1-c1ccccc1)CCOC3 [WW] | > 40 µM |
| Cc1cc(C)c2c(n1)nn1c(S)c(Cc3ccccc3)c(C)nc21 [RR] | > 40 µM |
| Cc1nn2c(S)c3c(nc2c1-c1ccccc1)CCCC3 [Compound K] | > 40 µM |
| Cc1nc2c(-c3ccccc3)cnn2c(O)c1Cc1ccccc1 [Compound U, 6-benzyl-5-methyl-3-phenyl-pyrazolo[1,5-a]pyrimidin-7-ol] | 14.7 µM |
| Cc1nc2c(C(F)(F)F)c(C)nn2c(S)c1Cc1ccccc1 [LL] | 16.5 µM |
| Cc1nn2c(O)cc(C(C)(C)C)nc2c1-c1ccc(Cl)cc1 [F] | > 40 µM |
| Cc1nc2c(-c3ccccc3)c(C)nn2c(O)c1Cc1ccncc1 [Compound X, 2,5-dimethyl-3-phenyl-6-(4-pyridylmethyl)pyrazolo[1,5-a]pyrimidin-7-ol] | > 40 µM |
| Cc1cc(S)n2ncc(-c3ccccc3)c2n1 [Compound C] | > 40 µM |
| COc1ccc(-c2cnn3c(S)cc(C)nc23)cc1 [SS] | > 40 µM |
| Cc1nc2c(-c3ccccc3)c(C)nn2c(S)c1Cc1ccncc1 [Compound AA, 2,5-dimethyl-3-phenyl-6-(4-pyridylmethyl)pyrazolo[1,5-a]pyrimidine-7-thiol] | > 40 µM |
| CC(C)(C)c1cc(O)n2ncc(-c3ccc(Cl)cc3)c2n1 [Compound G] | > 40 µM |

| SMILES | EC50 |
| --- | --- |
| Cc1nn2c(S)cc(C(C)C)nc2c1-c1ccccc1 [H] | > 40 µM |
| CCc1nn2c(S)cc(C)nc2c1-c1ccc(F)cc1 [Compound I] | 6.4 µM |
| Cc1cc(O)n2nc(C)c(-c3ccc(Cl)cc3)c2n1 [M] | > 40 µM |
| Cc1nn2c(S)c(C)c(Cc3ccccc3)nc2c1-c1ccccc1 [ZZ] | > 40 µM |
| Cc1cc(S)n2ncc(-c3ccc(F)cc3)c2n1 [Compound L, 3-(4-fluorophenyl)-5-methylpyrazolo[1,5-a]pyrimidine-7-thiol] | 27.1 µM |
| COc1ccccc1-c1c(C)nn2c(S)cc(C)nc12 [Compound D] | 11.7 µM |
| Cc1nc2c(-c3ccccc3)c(C)nn2c(S)c1Cc1ccccn1 [Compound BB, 2,5-dimethyl-3-phenyl-6-(2-pyridylmethyl)pyrazolo[1,5-a]pyrimidine-7-thiol] | 8.8 µM |
| Cc1cc2nc(C)c(Cc3ccccc3)c(S)n2n1 [S] | > 40 µM |
| Cc1nc2c(C(F)(F)F)c(C)nn2c(O)c1Cc1ccccc1 [JJ] | > 40 µM |
| CCCc1cc(S)n2nc(C)c(-c3ccccc3)c2n1 [Compound B] | > 40 µM |
| Cc1nc2c(-c3ccncc3)c(C)nn2c(S)c1Cc1ccccc1 [MM] | > 40 µM |
| Cc1cc(O)n2ncc(-c3ccc(F)cc3)c2n1 [PP] | > 40 µM |
| Cc1cc(C)c2c(n1)nn1c(S)cc(C)nc21 [Compound E] | 10.1 µM |
| Cc1nn2c(S)c3c(nc2c1-c1ccccc1)COC3 [XX] | > 40 µM |
| Oc1c(Cc2ccccc2)cnc2c(-c3ccccc3)cnn12 [Compound W, 6-benzyl-3-phenyl-pyrazolo[1,5-a]pyrimidin-7-ol] | > 40 µM |
| Cc1nc2c(-c3ccccc3)cnn2c(S)c1Cc1ccccc1 [Compound CC, 6-benzyl-5-methyl-3-phenyl-pyrazolo[1,5-a]pyrimidin-7-thiol] | > 40 µM |
| Cc1cc2nc(C)c(Cc3ccc(Cl)cc3)c(O)n2n1 [Compound P, 6-[(4-chlorophenyl)methyl]-2,5-dimethyl-pyrazolo[1,5-a]pyrimidin-7-ol] | 20.1 µM |
| CC(C)(C)c1cc(O)n2ncc(-c3ccccc3)c2n1 [J] | 13.4 µM |
| Cc1nc2c(-c3ccccc3)c(C)nn2c(O)c1Cc1ccccn1 [Compound Y, 2,5-dimethyl-3-phenyl-6-(2-pyridylmethyl)pyrazolo[1,5-a]pyrimidin-7-ol] | > 40 µM |
| Cc1cc2nc(C)c(Cc3ccccc3)c(O)n2n1 [Q] | > 40 µM |
| Cc1cc(S)n2ncc(-c3cnn(C)c3)c2n1 [VV] | > 40 µM |
